According to patent US20190119200A1, “TERTIARY AMIDES AND METHOD OF USE” (AbbVie Inc., priority 2016, published 2019):

Tests used:
Assay type in all cases: cell-based
[1] = target: T1, LPAR1 (Homo sapiens, UniProt Q92633); test: LPAR1 FLIPR Assay; conditions: U2OS cells stably expressing LPAR1, LPA (EC80), Calcium 6 FLIPR dye; for Emax: read-out: Maximum Inhibition
T1 construct: host or cells: U2OS
In short: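 U2OS cells stably expressing LPAR1 were loaded with Calcium 6 dye for 2 h at 37° C, preincubated 3 min with compound (11-point 3-fold series), then stimulated with LPA at EC80. Fluorescence at 515-575 nm was recorded by FLIPR; IC50 came from four-parameter logistic fits of ratio data.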

[2] = target: T1, LPAR1; test: IP-One HTRF Assay; conditions: U2OS cells stably expressing LPAR1, LPA stimulation, IP-One Tb HTRF kit; for Emax: read-out: Maximum Inhibition
Method: U2OS cells stably expressing LPAR1 (Life Technologies #K1519A) were plated at 20000 cells/well in growth medium (McCoy's 5A(Life Technologies #16600-082)) with 10% dFBS (Life Technologies #26400-036), 0.1 mM non-essential amino acids, 25 mM HEPES, 1 mM sodium pyruvate, 1% penicillin/streptomycin, 50 μg/mL hygromycin, and 100 μg/mL Geneticin® in tissue culture treated 384-well white plates (Greiner #781080) in humidified 5% CO2 at 37° C. overnight. On the day of the assay, culture medium was replaced with 30 μL/well of McCoy's 5A with 0.1% BSA. Cells were incubated in humidified 5% CO2 at 37° C. for 3 more hours. Compounds were 3-fold serial diluted from 2 mM for 11-points using dimethyl sulfoxide. 1 μL of compound in DMSO was diluted in 50 μL stimulation buffer from an IP-One Tb HTRF kit (Cisbio #62IPAPEB) immediately before assay. 15 μL/well of 1.33× compound in stimulation buffer was added to cells after removal of culture medium. After 20 minutes of incubation at 37° C., 5 μL/well of 8 μM LPA diluted in stimulation buffer with 0.1% fatty acid free BSA was added to cells. […]. To EC100 wells were added 4×20 μM LPA. To the cells were added 5 μL/well IP1-d2 conjugate and 5 μLwell IP1-K antibody after 2 hours of incubation at 37° C. Cells were incubated at room temperature for 1 hour (protected from light). The plate was then read at 665 nm and 615 nm using an EnVision® Multilabel Plate Reader. IC50 values were calculated from curve fits of the ratio data using a four-parameter logistic Hill equation (Assay Explorer 3.3 Client).

[3] = system: LPA-induced MCP-1 in NRK-49F cells; test: LPA-induced MCP-1 AlphaLISA assay; conditions: Rattus norvegicus, final LPA 10 μM, 7 hours; for Emax: read-out: Maximum Inhibition
In short: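 NRK-49F rat fibroblasts, serum-starved overnight, pretreated with compound for 30 min at 37 °C (1% DMSO final), then stimulated with 10 μM LPA final. MCP-1 in the supernatant was measured by mouse/rat CCL2 AlphaLISA. IC50 values came from four-parameter logistic fits of the ratio data.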

T1 sequence (Q92633 whole entry): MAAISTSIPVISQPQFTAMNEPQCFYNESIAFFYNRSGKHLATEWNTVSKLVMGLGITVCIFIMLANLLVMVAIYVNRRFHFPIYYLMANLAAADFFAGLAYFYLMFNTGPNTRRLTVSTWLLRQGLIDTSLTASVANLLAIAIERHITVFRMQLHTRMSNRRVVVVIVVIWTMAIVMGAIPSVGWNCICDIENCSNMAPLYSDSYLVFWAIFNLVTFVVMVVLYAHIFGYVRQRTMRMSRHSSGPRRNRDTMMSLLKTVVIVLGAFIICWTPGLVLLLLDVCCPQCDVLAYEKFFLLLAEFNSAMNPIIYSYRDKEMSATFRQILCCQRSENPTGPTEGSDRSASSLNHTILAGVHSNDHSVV

Row | SMILES | IC50 [1] | Emax [1] | IC50 [2] | Emax [2] | IC50 [3] | Emax [3]
1 | COc1cc(C(=O)N(CCCc2ccccc2)CC(=O)NC2(C(=O)O)Cc3ccccc3C2)cc(OC)c1C [Example 1, 2-{[N-(3,5-dimethoxy-4-methylbenzoyl)-N-(3-phenylpropyl)glycyl]amino}-2,3-dihydro-1H-indene-2-carboxylic Acid] | 0.045 µM | 74% | 1.21 µM | 75% | 1.54 µM | 66%
2 | COc1cc(C(=O)N(CCCc2ccccc2)CC(=O)NC2(C(=O)O)CCCCC2)cc(OC)c1C [Example 2, 1-{[N-(3,5-dimethoxy-4-methylbenzoyl)-N-(3-phenylpropyl)glycyl]amino}cyclohexane-1-carboxylic Acid] | 0.114 µM | 72% | 4.83 µM | 84% |  | 
3 | COc1cc(C(=O)N(CCCCCC(=O)O)CCCc2ccccc2)cc(OC)c1C [Example 5, 6-[(3,5-dimethoxy-4-methylbenzoyl)(3-phenylpropyl)amino]hexanoic Acid] | 0.027 µM | 97% | 0.313 µM | 105% | 0.286 µM | 97%
4 | COc1cc(C(=O)N(CCCCC(=O)O)CCCc2cccc(C)c2)cc(OC)c1C [Example 11, 5-{(3,5-dimethoxy-4-methylbenzoyl)[3-(3-methylphenyl)propyl]amino}pentanoic Acid] | 0.015 µM | 96% | 0.253 µM | 88% | 0.247 µM | 91%
5 | COc1cc(C(=O)N(CCCCC(=O)O)CCCc2ccc(C)s2)cc(OC)c1C [Example 41, 5-{(3,5-dimethoxy-4-methylbenzoyl)[3-(5-methylthiophen-2-yl)propyl]amino}pentanoic Acid] | 0.022 µM | 97% | 0.191 µM | 100% | 0.335 µM | 88%
6 | COc1cc(C(=O)N(CCCc2ccccc2)CCCC(C)C(=O)O)cc(OC)c1C (stereo not drawn) [Example 54, 5-[(3,5-dimethoxy-4-methylbenzoyl)(3-phenylpropyl)amino]-2-methylpentanoic Acid] | 0.015 µM | 100% | 0.022 µM | 91% | 0.055 µM | 96%
7 | COc1cc(C(=O)N(CCCc2ccccc2)CCOC(C)(C)C(=O)O)cc(OC)c1C [Example 55, 2-{2-[(3,5-dimethoxy-4-methylbenzoyl)(3-phenylpropyl)amino]ethoxy}-2-methylpropanoic Acid] | 0.022 µM | 100% | 0.089 µM | 98% | 0.111 µM | 93%
8 | COc1cc(C(=O)N(CCCc2ccccc2)CCOCCC(=O)O)cc(OC)c1C [Example 56, 3-{2-[(3,5-dimethoxy-4-methylbenzoyl)(3-phenylpropyl)amino]ethoxy}propanoic Acid] | 0.021 µM | 95% | 0.424 µM | 100% | 1.24 µM | 79%
9 | COc1cc(C(=O)N(CCCc2ccccc2)CCOCC2(C(=O)O)CC2)cc(OC)c1C [Example 59, 1-({2-[(3,5-dimethoxy-4-methylbenzoyl)(3-phenylpropyl)amino]ethoxy}methyl)cyclopropane-1-carboxylic Acid] | 0.023 µM | 100% | 0.449 µM | 88% | 0.127 µM | 93%
10 | COc1cc(C(=O)N(CCCc2ccccc2)CCSCC2(C(=O)O)CC2)cc(OC)c1C [Example 61, 1-[({2-[(3,5-dimethoxy-4-methylbenzoyl)(3-phenylpropyl)amino]ethyl}sulfanyl)methyl]cyclopropane-1-carboxylic Acid] | 0.02 µM | 98% | 0.114 µM | 85% | 0.147 µM | 92%
11 | CNS(=O)(=O)NC(=O)CCN(CCCc1ccccc1)C(=O)c1cc(OC)c(C)c(OC)c1 [Example 68, 3,5-dimethoxy-4-methyl-N-{3-[(methylsulfamoyl)amino]-3-oxopropyl}-N-(3-phenylpropyl)benzamide] | 0.902 µM | 52% | 13.3 µM | 67% |  | 
12 | COc1cc(C(=O)N(CCCC(=O)O)CCCc2ccccc2)cc(OC)c1C [Example 69, 4-[(3,5-dimethoxy-4-methylbenzoyl)(3-phenylpropyl)amino]butanoic Acid] | > 30 µM | 38% | 3.82 µM | 85% | 1.66 µM | 62%
13 | CNS(=O)(=O)NC(=O)CCCCN(CCCc1ccccc1)C(=O)C1(c2ccc(OC)cc2)CC1 [Example 73, 1-(4-methoxyphenyl)-N-{5-[(methylsulfamoyl)amino]-5-oxopentyl}-N-(3-phenylpropyl)cyclopropane-1-carboxamide] | 0.06 µM | 65% | > 30 µM | 44% | 5.16 µM | 79%
14 | COc1cc(C(=O)N(CCCc2ccccc2)CCCC(O)C(=O)O)cc(OC)c1C1CC1 (stereo not drawn) [Example 165, 5-[(4-cyclopropyl-3,5-dimethoxybenzoyl)(3-phenylpropyl)amino]-2-hydroxypentanoic Acid] | 0.045 µM | 83% |  |  | 2.73 µM | 70%
15 | COc1cc(C(=O)N(CCCCc2nnn[nH]2)CCCc2ccccc2)cc(OC)c1C [Example 166, 3,5-dimethoxy-4-methyl-N-(3-phenylpropyl)-N-[4-(1H-tetrazol-5-yl)butyl]benzamide] | 0.042 µM | 96% |  |  | 1.06 µM | 80%
16 | Cc1ncc(Cl)c(C(=O)N(CCCCC(=O)O)CCCc2ccccc2)n1 [Example 167, 5-[(5-chloro-2-methylpyrimidine-4-carbonyl)(3-phenylpropyl)amino]pentanoic Acid] | 0.635 µM | 58% |  |  | > 10 µM | 25%
17 | O=C(O)CCCCN(CCCc1ccccc1)C(=O)C1CC(=O)Nc2cc(F)ccc21 (stereo not drawn) [Example 170, 5-[(7-fluoro-2-oxo-1,2,3,4-tetrahydroquinoline-4-carbonyl)(3-phenylpropyl)amino]pentanoic Acid] | 0.333 µM | 81% |  |  | > 10 µM | 50%
18 | CC(=O)Nc1cc(C(=O)N(CCCCC(=O)O)CCCc2ccccc2)ccn1 [Example 171, 5-[(2-acetamidopyridine-4-carbonyl)(3-phenylpropyl)amino]pentanoic Acid] | 0.933 µM | 70% |  |  | > 2.18 µM | 30%
19 | CCOc1cc(OCC)cc(C(=O)N(CCCCC(=O)O)CCCc2ccc(C)o2)c1 [Example 176, 5-{(3,5-diethoxybenzoyl)[3-(5-methylfuran-2-yl)propyl]amino}pentanoic Acid] | 0.084 µM | 64% |  |  | > 8.19 µM | 53%
20 | COc1cc(C(=O)N(CCCc2ccc(C)o2)CCCC(C)C(=O)O)cc(OC)c1C (stereo not drawn) [Example 179, 5-{(3,5-dimethoxy-4-methylbenzoyl)[3-(5-methylfuran-2-yl)propyl]amino}-2-methylpentanoic Acid] | 0.046 µM | 97% |  |  | 1.98 µM | 74%
21 | COc1cc(C(=O)N(CCCc2ccc(C)o2)CCCC(C)(C)C(=O)O)cc(OC)c1C [Example 180, 5-{(3,5-dimethoxy-4-methylbenzoyl)[3-(5-methylfuran-2-yl)propyl]amino}-2,2-dimethylpentanoic Acid] | 0.048 µM | 100% |  |  | 0.105 µM | 93%
22 | COc1cc(C(=O)N(CCCCC(=O)O)CCC(C)c2ccccc2)cc(OC)c1C (stereo not drawn) [Example 182, 5-[(3,5-dimethoxy-4-methylbenzoyl)(3-phenylbutyl)amino]pentanoic Acid] | 0.047 µM | 91% |  |  | 0.994 µM | 85%
23 | COc1cc(C(=O)N(CCCOC(=O)NS(C)(=O)=O)CCCc2ccccc2)cc(OC)c1C [Example 186, 3-[(3,5-dimethoxy-4-methylbenzoyl)(3-phenylpropyl)amino]propyl (methanesulfonyl)carbamate] | 0.065 µM | 83% |  |  | 7.05 µM | 54%
